Legend:
Mice [1] = test: Glucose-stimulated insulin secretion (GTT/insulin test, insulin ELISA); type: in vivo, mouse; settings: 30 mg/kg; for Plasma Insulin, AUC, Mean: glucose-stimulated insulin secretion, in ng·min/mL (unit assumed)
Description: (§1) Vehicle is CMC-Tween: 0.5% CMC+0.25% Tween 20 at an appropriate ml/kg. Dextrose dose per mouse=2 g dextrose/kg made from 0.5 g/ml stock dextrose solution. Compound 1 dose per mouse=30 mg/kg in CMC/Tween vehicle made from 4 mg/mL stock solution by adding 50 μL DMSO to 20 mg Compound 1, stirring to make a paste, adding 1 ml CMC/Tween with stirring, sonicating for 8 minutes on energy 05, and adjusting to 5 ml with CMC/Tween.
Mice (5 per group) were fasted at 6 am for an experiment at noon. Blood glucose was measured from tail nick blood using an Accucheck—Compact Monitoring Kit (Roche Diagnostics, Indianapolis Ind.). Baseline (time=−15 min) blood glucose concentration was determined for all mice and tail nick blood samples were collected. 2 g/kg dextrose (Hospira, Lake Forest, Ill.) was administered orally at time 0. […] Terminal blood samples were collected from portal vein draws in three mice at t=20. Blood plasma was harvested from blood collected in EDTA microvettes by centrifugation (10 min at […]). Plasma was stored in −80 C freezer to be analyzed for other chemistry measurements.
A Mercodia ultrasensitive mouse insulin ELISA kit (Mercodia AB, Uppsala, Sweden) was used in a 96-well coated plate. All reagents and samples were brought to room temperature before use, Calibrator concentrations were 0.07, 0.13, 0.25, 0.63, 1.9, 5.2, 13.0, and 64.0 μg/L, and a calibration curve was prepared for each assay run. To 25 μL calibrator 0 in each well was added 5 μL calibrators and 5 μL of samples/standards in duplicate, then 50 μL dilute enzyme conjugate 11× in enzyme conjugate buffer. This was incubated on a shaker for 2 hours at room temperature (18-25° C.), and each well was washed 5 times in 350 μL wash buffer and aspirated completely. After final wash, plate was inverted and tapped firmly against absorbent paper. 200 μL substrate TMB was added to each well and incubated for 30 minutes. 50 μL stop solution was added to each well, and the plate was placed on the shaker for about 5 seconds to ensure mixing of substrate and stop Solution. Absorbance was measured at 450 nm.

Mice [2] = test: Glucose tolerance test (GTT), glucose disposal; type: in vivo, mouse; settings: 30 mg/kg
Description: as §1
Glucose Tolerance Test (GTT)/Insulin Test
Mice (5 per group) were fasted at 6 am for an experiment at noon. Blood glucose was measured from tail nick blood using an Accucheck—Compact Monitoring Kit (Roche Diagnostics, Indianapolis Ind.). Baseline (time=−15 min) blood glucose concentration was determined for all mice and tail nick blood samples were collected. 2 g/kg dextrose (Hospira, Lake Forest, Ill.) was administered orally at time 0. Blood samples were collected from the following mice via tail nick blood draw (˜100 μL) into EDTA microtainer tubes at the following time points: −15, 0, 3, 6, 9, 12, 15, 20, 30 and 120 min. Terminal blood samples were collected from portal vein draws in three mice at t=20. Blood plasma was harvested from blood collected in EDTA microvettes by centrifugation (10 min at […]). Plasma was stored in −80 C freezer to be analyzed for other chemistry measurements.

[3] = 2 g/kg dextrose orally at time 0, time 0 min
[4] = 2 g/kg dextrose orally at time 0, time 3 min
[5] = 2 g/kg dextrose orally at time 0, time 6 min
[6] = 2 g/kg dextrose orally at time 0, time 9 min
[7] = 2 g/kg dextrose orally at time 0, time 12 min
[8] = 2 g/kg dextrose orally at time 0, time 15 min
[9] = 2 g/kg dextrose orally at time 0, time 20 min
[10] = 2 g/kg dextrose orally at time 0, time 30 min
[11] = 2 g/kg dextrose orally at time 0, time 120 min
[12] = 2 g/kg dextrose orally at time 0, time −15 min (baseline)

Structure (SMILES): O=c1c2ccccc2nc(-c2ccc(F)cc2)n1NCc1ccc(Br)cc1 [Example 1]
- Plasma Insulin, Mean (Mice [1]; [3]): 1.56 ng/mL
- Plasma Insulin, Mean (Mice [1]; [4]): 2.35 ng/mL
- Plasma Insulin, Mean (Mice [1]; [5]): 3.24 ng/mL
- Plasma Insulin, Mean (Mice [1]; [6]): 3.94 ng/mL
- Plasma Insulin, Mean (Mice [1]; [7]): 4.18 ng/mL
- Plasma Insulin, Mean (Mice [1]; [8]): 4.05 ng/mL
- Plasma Insulin, Mean (Mice [1]; [9]): 3.79 ng/mL
- Plasma Insulin, Mean (Mice [1]; [10]): 1.82 ng/mL
- Plasma Insulin, Mean (Mice [1]; 2 g/kg dextrose orally at time 0, time 60 min): 1.23 ng/mL
- Plasma Insulin, Mean (Mice [1]; [11]): 1.17 ng/mL
- Plasma Insulin, Mean (Mice [1]; [12]): 1.78 ng/mL
- Plasma Insulin, AUC, Mean (Mice [1]; 0-15 min): 35.15
- Plasma Insulin, AUC, Mean (Mice [1]; 0-30 min): 68.39
- Plasma Glucose, Mean (Mice [2]; [3]): 220.4 mg/dL
- Plasma Glucose, Mean (Mice [2]; [4]): 272.2 mg/dL
- Plasma Glucose, Mean (Mice [2]; [5]): 332.6 mg/dL
- Plasma Glucose, Mean (Mice [2]; [6]): 398.2 mg/dL
- Plasma Glucose, Mean (Mice [2]; [7]): 427.2 mg/dL
- Plasma Glucose, Mean (Mice [2]; [8]): 430.0 mg/dL
- Plasma Glucose, Mean (Mice [2]; [9]): 425.9 mg/dL
- Plasma Glucose, Mean (Mice [2]; [10]): 354.6 mg/dL
- Plasma Glucose, Mean (Mice [2]; [11]): 213.2 mg/dL
- Plasma Glucose, Mean (Mice [2]; [12]): 170.0 mg/dL
- Plasma Glucose, AUC, Mean (Mice [2]; glucose tolerance test, 0-120 min): 16400

— US20090035306A1 (KALYPSYS, INC., priority 2006, published 2009)
